According to patent publication US10322110B2, “Imidazole-based antimicrobial agents” (priority 2014, dated 2019):
In brackets after ≈: the same amount, converted by molar mass. Like-named read-outs stand apart in the source and are kept apart here.

What was measured:
Type in all cases: cell-based
[1] = system: Streptococcus pneumoniae (Chester, ATCC49619); assay: broth microdilution MIC assay, Streptococcus pneumoniae; details: MIC100 class score, 24 h
[2] = system: Staphylococcus aureus MSSA (Newman); assay: broth microdilution MIC assay, Staphylococcus aureus MSSA (Newman); details: for Antibacterial activity Staphylococcus aureus (MSSA): MIC100 class score, broth microdilution; for MIC: Staphylococcus aureus
[3] = system: Staphylococcus aureus MRSA (COL); assay: broth microdilution MIC assay, Staphylococcus aureus MRSA (COL); details: 24 h; for Antibacterial activity Staphylococcus aureus (MRSA): MIC100 class score, broth microdilution; for MIC: Staphylococcus aureus, MRSA, read-out: Antibacterial activity Staphylococcus aureus (MRSA)

Compound | Antibacterial activity Streptococcus pneumoniae [1] | Antibacterial activity Staphylococcus aureus (MRSA) [3] | further results
Cc1[nH]c(-c2ccc(-c3ccc(F)cc3)s2)nc1-c1ccccc1 [Compound 7] | 3 (MIC100 of 2-5 μg/ml) | – | –
Cc1[nH]c(-c2csc(-c3ccc(F)cc3)n2)nc1-c1ccccc1 [Compound 11] | 3 (MIC100 of 2-5 μg/ml) | – | –
Cc1[nH]c(-c2ccc(-c3cccc(Cl)c3)s2)nc1-c1ccccc1 [Compound 12] | 3 (MIC100 of 2-5 μg/ml) | – | –
Cc1[nH]c(-c2ccc(-c3cccc(Br)c3)s2)nc1-c1ccccc1 [Compound 13] | 2 (MIC100 of 6-10 μg/ml) | – | –
Cc1[nH]c(-c2csc(-c3cccc(Br)c3)n2)nc1-c1ccccc1 [Compound 14] | 3 (MIC100 of 2-5 μg/ml) | – | –
Cc1[nH]c(-c2ccc(-c3ccccc3C(F)(F)F)o2)nc1-c1cccc(Cl)c1 [Compound 22] | 3 (MIC100 of 2-5 μg/ml) | – | Antibacterial activity Staphylococcus aureus (MSSA) ([2]; 24 h): 2 (MIC100 of 11-201 μg/ml); MIC ([2]; read-out: Antibacterial activity MSSA (Staphylococcus aureus MSSA)): 11 to 201 µg/mL (≈ 27.3 to 499 µM)
Cc1ccc(-c2ccc(-c3nc(-c4ccccc4)c(C)[nH]3)s2)cc1 [Compound 54] | 2 (MIC100 of 6-10 μg/ml) | – | –
Cc1ccc(-c2ncc(-c3nc(-c4ccccc4)c(C)[nH]3)s2)cc1 [Compound 55] | 3 (MIC100 of 2-5 μg/ml) | – | –
Cc1ccc(-c2nc(-c3nc(-c4ccccc4)c(C)[nH]3)cs2)cc1 [Compound 56] | 3 (MIC100 of 2-5 μg/ml) | – | –
Cc1ccc(-c2nc(-c3nc(-c4ccccc4)c(C)[nH]3)co2)cc1 [Compound 57] | 3 (MIC100 of 2-5 μg/ml) | – | –
Cc1[nH]c(-c2ccc(-c3ccccc3)s2)nc1-c1ccccc1 [Compound 74] | 3 (MIC100 of 2-5 μg/ml) | – | –
FC(F)(F)c1ccccc1-c1ccc(-c2ncc(-c3ccccc3)[nH]2)o1 [Compound 75] | – | – | MIC ([2]; 24 h, read-out: Antibacterial activity Staphylococcus aureus (MSSA)): 11 to 201 µg/mL (≈ 31 to 567 µM)
Cc1[nH]c(-c2ccc(-c3ccccc3OC(F)(F)F)o2)nc1-c1ccc(O)cc1 [Compound 76] | 3 (MIC100 of 2-5 μg/ml) | – | Antibacterial activity Staphylococcus aureus (MSSA) ([2]; 24 h): 3 (MIC100 of 3-10 μg/ml)
Cc1[nH]c(-c2ccc(-c3ccccc3F)o2)nc1-c1ccc(O)cc1 [Compound 77] | 3 (MIC100 of 2-5 μg/ml) | – | Antibacterial activity Staphylococcus aureus (MSSA) ([2]; 24 h): 3 (MIC100 of 3-10 μg/ml)
COc1ccc(-c2ccc(-c3nc(C)c(-c4ccc(O)cc4)[nH]3)o2)cc1 [Compound 79] | 3 (MIC100 of 2-5 μg/ml) | – | –
CCCc1[nH]c(-c2ccc(-c3ccccc3Cl)s2)nc1C [Compound 82] | – | 3 (MIC100 of 3-10 μg/ml) | –

Compound | Antibacterial activity Streptococcus pneumoniae [1] | Antibacterial activity Staphylococcus aureus (MRSA) [3] | further results
Brc1ccccc1-c1ccc(-c2ncc(-c3ccccc3)[nH]2)o1 [Compound 83] | 3 (MIC100 of 2-5 μg/ml) | – | –
Cc1nc(-c2ccc(-c3ccccc3Br)o2)[nH]c1C [Compound 84] | – | – | MIC [3]: 11 to 201 µg/mL (≈ 34.7 to 634 µM)
Cc1nc(-c2ccc(-c3ccccc3OC(F)(F)F)o2)[nH]c1C [Compound 85] | – | – | MIC [3]: 1 to 3 µg/mL (≈ 3.1 to 9.31 µM)
CCCCc1nc(-c2ccc(-c3ccccc3C(F)(F)F)o2)[nH]c1C [Compound 90] | 3 (MIC100 of 2-5 μg/ml) | – | –
CCCc1[nH]c(-c2ccc(-c3ccccc3)o2)nc1C [Compound 94] | 3 (MIC100 of 2-5 μg/ml) | 3 (MIC100 of 3-10 μg/ml) | –
CCCc1[nH]c(-c2ccc(-c3ccccc3[N+](=O)[O-])o2)nc1C [Compound 97] | 2 (MIC100 of 6-10 μg/ml) | 2 (MIC100 of 11-201 μg/ml) | –
CCCc1nc(-c2ccc(-c3ccccc3N(C)C)o2)[nH]c1C [Compound 98] | – | 3 (MIC100 of 3-10 μg/ml) | –
CCCc1nc(-c2ccc(-c3ccccc3C)o2)[nH]c1C [Compound 100] | 3 (MIC100 of 2-5 μg/ml) | 2 (MIC100 of 11-201 μg/ml) | –
CCCc1[nH]c(-c2ccc(-c3ccccc3C(F)(F)F)o2)nc1C [Compound 101] | 3 (MIC100 of 2-5 μg/ml) | – | –
CCCc1nc(-c2ccc(-c3ccccc3OC)o2)[nH]c1C [Compound 102] | 3 (MIC100 of 2-5 μg/ml) | – | –
CCCc1nc(-c2ccc(-c3c(C)cccc3C)o2)[nH]c1C [Compound 103] | 3 (MIC100 of 2-5 μg/ml) | 3 (MIC100 of 3-10 μg/ml) | –
CCCc1nc(-c2ccc(-c3ccc(C(F)(F)F)cc3)o2)[nH]c1C [Compound 104] | 3 (MIC100 of 2-5 μg/ml) | 3 (MIC100 of 3-10 μg/ml) | –
CCCc1[nH]c(-c2ccc(-c3cccc4[nH]ccc34)o2)nc1C [Compound 108] | 2 (MIC100 of 6-10 μg/ml) | 2 (MIC100 of 11-201 μg/ml) | –
CCCc1[nH]c(-c2ccc(-c3ccc(Cl)cc3Cl)o2)nc1C [Compound 109] | – | 2 (MIC100 of 11-201 μg/ml) | –
CCCc1[nH]c(-c2ccc(-c3cc(F)ccc3C(F)(F)F)o2)nc1C [Compound 111] | 3 (MIC100 of 2-5 μg/ml) | – | –
CCCc1nc(-c2coc(-c3ccccc3C(F)(F)F)c2)[nH]c1C [Compound 112] | – | 3 (MIC100 of 3-10 μg/ml) | –
